# Source: US9433663B2, “Mobilization of hematopoietic stem cells” (Children's Hospital Medical Center, priority 2008, dated 2016)
# Columns and labels:
# Rac1 = biological target: T1, Rac1 (Homo sapiens, UniProt P63000); test: Rho GTPase effector pulldown in human CD34+ umbilical cord blood cells, Rac1; assay type: cell-based; conditions: human CD34^+ HCBs
# T1 construct: endogenous in cells; host or cells: human CD34+ umbilical cord blood cells (HCB)
# Experimental: To begin to study potential utility of CASIN in human hematopoietic stem cell mobilization, a series of cellular assays were carried out to determine the effects on human CD34^+ umbilical cord blood cells (HCBs). […] The effects of CASIN on human hematopoietic cell mobilization was therefore tested using a well established preclinical in vivo model (NOD/SCID-Hcb) of human hematopoietic function, where fresh CD34^+ hCB cells were transplanted into sub-lethally irradiated NOD/SCIDs by intrafemoral injection, and repopulated and maintained human hematopoietic reconstitution in the bone marrow of NOD/SCID recipient mice (FIG. 9b, FIG. 11) (Larochelle, A. et al. Nat Med 2, 1329-1337 (1996); Bhatia, M., et al. Proc Natl Acad Sci USA 94, 5320-5325 (1997)). Intravenous injections of CASIN were applied when human cells were well engrafted in the NOD/SCID recipients.
# To analyze the effects of CASIN on the formation of active GTP-bound Cdc42, RhoA, and Rac1, effector pulldown assays were carried out as described previously. Cdc42GAP^−/− MEF, LDBM, CD34^+ hCB cells were treated with CASIN at doses of 5-20 μM in parallel with vehicle control for 2 hrs after overnight starvation, and stimulated with cytokines subsequently. […]
# [1] = system: other Rho GTPases and Ras; test: Example 7 effector pull-down in LDBM and HCB cells, other Rho GTPases and Ras; assay type: cell-based, murine LDBM and human HCB cells
# Experimental: To exclude the inhibitory effect of CASIN on other Rac isoforms, Rho GTPases, and Ras, broader effector pull-down experiments are performed on these possible candidates with gradient doses of CASIN in LDBM and HCB cells as previously described. In addition, CASIN has been indicated as a noncovalent and reversible inhibitor in Xenopus egg extract. To confirm it, reversibility is monitored in this set of effector pull-down experiments. Four treatment groups are divided for both LDBM and HCB cells: (1) Serum starvation 20 h; (2) Serum starvation 20 h+growth factors stimulation; (3) Serum starvation 20 h+CASIN treatment (doses: 1, 2.5, 5, and 10 μM) 3 h+growth factor stimulation; (4) Serum starvation 20 h+CASIN treatment (doses: 1, 2.5, 5, and 10 μM) 3 h+wash the cells, and culture for another 3 h for recovery+growth factors stimulation. […] Bound proteins are analyzed by immunoblotting with respective antibodies (BD Biosciences). Furthermore, changes of downstream targets of Cdc42, Rac, and Rho under the four treatment groups are assessed. Phosphorylation status of PAK1, WASP (effectors of Cdc42), WAVE (effector of Rac), and ROCK (effector of Rho) are monitored by western blots using respective antibodies.
# LT-HSC, ST-HSC, and MPP = test: Example 8 kinetics of BM HSC number, cell cycle and reconstitution; assay type: in vivo, C57Bl/6 mice
# Experimental: To monitor the kinetics of CASIN effects on cell number, proliferation, and cell cycle change of HSCs, four time points post-CASIN-administration are focused on in this part. The determination of the four time points depends on the PD analysis to reflect the kinetics of HSCs from relatively quiescent state through proliferative state back to the quiescent state. In this study, the following time points are used: 0, 24, 48, and 96 hours postdosing as an example. Again C57Bl/6 mice are used here. Three subpopulations of HSC/P are investigated and phenotypically defined by flow cytometry: (1) Long-term reconstituting Flk-2-HSC (LT-HSC) subset (Lin−/c-Kit+/Sca-1+/Thy1.1int/FLK2−) capable of extensive self-renewal; (2) Short-term reconstituting Flk-2int HSC(ST-HSCF) subset (Lin−/c-K1t+/Sca-1+/Thy1.1int/FLK2int), which self-renews for a limited interval; (3) Nonself-renewing Flk-2+ multipotent progenitor (MPPF) subset (Lin−/c-K1t+/Sca-1+/Thy1.1int/FLK2+).
# Harvest of PB and BM: At 0, 24, 48, and 96 h post CASIN injection, the mice are sacrificed, and then the marrow is flushed from the femurs and tibias of C57Bl/6 mice and the blood cells are collected by cardiac incision.
# Change of the frequency and total number of subpopulations of HSC/Ps in BM and PB: Both PB and BM cells are further prepared for flow cytometry analysis. Then, the frequencies of LT-HSC, ST-HSC, and MPP along the four time points are determined using the combinations of cell surface markers mentioned above phenotypically by flow cytometry. The absolute numbers of different subpopulations of HSC in BM and PB are calculated according to the total cellularity of BM and PB of the mice.
# Cell cycle analysis: To characterize the cell cycle status of subpopulations of HSCs following treatment with CASIN, double-sorted cells are stained with Hoechst 33342 and Pyronin Y (H/PY), allowing simultaneous assessment of the fraction of cells with more than 2n DNA content (Hoechst 33342), as well as relative levels of total double-stranded RNA (PY). […]
compound,measurement,setting,value
OCCNC1CCCc2c1[nH]c1ccc(-c3ccccc3)cc21 (centres unmarked) [CASIN],Rac1 activity,Rac1,without affecting
same,activities of other Rho GTPases and Ras,[1],without affecting
same,reconstitution frequency of BM LT-HSCs,"LT-HSC, ST-HSC, and MPP; 48 hours post injection, compared to non-treated mice",significantly decreases
same,cell cycle status of HSC/P subpopulations (H/PY staining),"LT-HSC, ST-HSC, and MPP; after CASIN administration",decreased frequencies of cells in G0 phase
same,"numbers and frequencies of LT-HSC, ST-HSC, and MPP population in BM","LT-HSC, ST-HSC, and MPP; post-CASIN administration",increase dramatically up to 48 h post-CASIN administration
